Values quoted from earlier work in patent EP4488277A1, “NOVEL BISPIDINE-BASED METAL CHELATING LIGANDS DISPLAYING GOOD RELAXIVITY” (Université de Strasbourg, priority 2023, dated 2025).

Conditions: pH of 7.4, 60 MHz, 25°C

CNC[C@H](O)[C@@H](O)[C@H](O)[C@H](O)CO.O=C([O-])CN1CCN(CC(=O)[O-])CCN(CC(=O)O)CCN(CC(=O)[O-])CC1.[Gd+3] [Dotarem®, gadoterate meglumine]
relaxivity r1: 3.7 mM⁻¹ s⁻¹
